What was measured:
Format in all cases: functional
[1] = system: OVCAR-5; experiment: Anticancer activity against human OVCAR5 cells after 48 hrs by SRB assay; details: OVCAR-5, 48 h
[2] = system: IGROV-1; experiment: Anticancer activity against human IGROV1 cells after 48 hrs by SRB assay; details: IGROV-1, 48 h
[3] = system: SW-620; experiment: Anticancer activity against human SW620 cells after 48 hrs by SRB assay; details: SW-620, 48 h
[4] = system: HCC 2998; experiment: Anticancer activity against human HCC2998 cells after 48 hrs by SRB assay; details: HCC 2998, 48 h
[5] = system: SK-OV-3; experiment: Anticancer activity against human SKOV3 cells after 48 hrs by SRB assay; details: SK-OV-3, 48 h
[6] = system: NCI/ADR-RES; experiment: Anticancer activity against human NCI/ADR-RES cells after 48 hrs by SRB assay
[7] = system: NCI-H322M; experiment: Anticancer activity against human NCI-H322M cells after 48 hrs by SRB assay
[8] = system: HL-60(TB); experiment: Anticancer activity against human HL-60(TB) cells after 48 hrs by SRB assay; details: HL-60, 48 h
[9] = system: MDA-MB-468; experiment: Anticancer activity against human MDA-MB-468 cells after 48 hrs by SRB assay; details: MDA-MB-468, 48 h
[10] = system: EKVX; experiment: Anticancer activity against human EKVX cells after 48 hrs by SRB assay
[11] = system: MOLT-4; experiment: Anticancer activity against human MOLT4 cells after 48 hrs by SRB assay; details: MOLT-4, 48 h
[12] = system: COLO 205; experiment: Anticancer activity against human COLO205 cells after 48 hrs by SRB assay; details: COLO 205, 48 h
[13] = system: RXF 393; experiment: Anticancer activity against human RXF393 cells after 48 hrs by SRB assay; details: RXF 393, 48 h
[14] = system: LOX IMVI; experiment: Anticancer activity against human LOXIMVI cells after 48 hrs by SRB assay
[15] = system: 786-0; experiment: Anticancer activity against human 786-0 cells after 48 hrs by SRB assay; details: 786-0, 48 h
[16] = system: ACHN; experiment: Anticancer activity against human ACHN cells after 48 hrs by SRB assay
[17] = system: CCRF-CEM; experiment: Anticancer activity against human CCRF-CEM cells after 48 hrs by SRB assay
[18] = system: UO-31; experiment: Anticancer activity against human UO31 cells after 48 hrs by SRB assay; details: UO-31, 48 h
[19] = system: Malme-3M; experiment: Anticancer activity against human MALME-3M cells after 48 hrs by SRB assay
[20] = system: A498; experiment: Anticancer activity against human A498 cells after 48 hrs by SRB assay; details: A498, 48 h
[21] = system: SK-MEL-5; experiment: Anticancer activity against human SK-MEL-5 cells after 48 hrs by SRB assay; details: SK-MEL-5, 48 h
[22] = system: BT-549; experiment: Anticancer activity against human BT549 cells after 48 hrs by SRB assay; details: BT-549, 48 h
[23] = Anticancer activity against human Hs 578T cells after 48 hrs by SRB assay
[24] = system: SK-MEL-2; experiment: Antiproliferative activity against human SK-MEL-2 cells assessed as cell growth at 10^-5 M after 48 hrs by SRB assay relative to control; details: SK-MEL-2, 48 h, read-out: Activity
[25] = system: U-251; experiment: Anticancer activity against human U251 cells after 48 hrs by SRB assay; details: U-251, 48 h
[26] = system: TK-10; experiment: Anticancer activity against human TK10 cells after 48 hrs by SRB assay; details: TK-10, 48 h
[27] = system: MDA-MB-231; experiment: Anticancer activity against human MDA-MB-231 cells after 48 hrs by SRB assay; details: MDA-MB-231, 48 h
[28] = system: MCF7; experiment: Anticancer activity against human MCF7 cells after 48 hrs by SRB assay; details: MCF7, 48 h
[29] = system: T47D; experiment: Anticancer activity against human T47D cells after 48 hrs by SRB assay
[30] = system: MDA-MB-435; experiment: Anticancer activity against human MDA-MB-435 cells after 48 hrs by SRB assay; details: MDA-MB-435, 48 h
[31] = system: A549; experiment: Anticancer activity against human A549 cells after 48 hrs by SRB assay; details: A549, 48 h
[32] = system: NCI-H460; experiment: Anticancer activity against human NCI-H460 cells after 48 hrs by SRB assay; details: NCI-H460, 48 h
[33] = system: SF-268; experiment: Anticancer activity against human SF268 cells after 48 hrs by SRB assay; details: SF-268, 48 h
[34] = system: UACC-257; experiment: Anticancer activity against human UACC257 cells after 48 hrs by SRB assay; details: UACC-257, 48 h
[35] = read-out: LC50 (the source's name)

Cc1cc(O)c(C2=NN(c3ccc(S(N)(=O)=O)cc3)C(c3ccc(Cl)cc3)C2)c(C)c1Cl (stereo unspecified)
GI50 [1]: 19.4 µM
TGI [1]: 38.1 µM
GI50 [2]: 18.3 µM
TGI [2]: 59 µM
GI50 [3]: 18.4 µM
TGI [3]: 37.8 µM
GI50 [4]: 14.8 µM
TGI [4]: 30.9 µM
GI50 [5]: 27.4 µM
TGI [5]: 90.8 µM
CC50 [5, 35]: 100 µM
GI50 [6]: 19.3 µM
TGI [6]: 76.4 µM
CC50 [6, 35]: 100 µM
GI50 [7]: 18 µM
TGI [7]: 38.9 µM
GI50 [8]: 20.3 µM
TGI [8]: 50 µM
GI50 [9]: 17.1 µM
TGI [9]: 33.8 µM
CC50 [9, 35]: 66.7 µM
GI50 [10]: 13.3 µM
TGI [10]: 36.1 µM
GI50 [11]: 12.7 µM
TGI [11]: 43.2 µM
GI50 [12]: 12.3 µM
TGI [12]: 25.4 µM
GI50 [13]: 24.5 µM
TGI [13]: 59.1 µM
CC50 [13, 35]: 100 µM
GI50 [14]: 14.8 µM
TGI [14]: 32 µM
CC50 [14, 35]: 69.2 µM
GI50 [15]: 16.8 µM
TGI [15]: 32.2 µM
CC50 [15, 35]: 62 µM
GI50 [16]: 14.9 µM
TGI [16]: 30.6 µM
CC50 [16, 35]: 62.9 µM
GI50 [17]: 15.1 µM
TGI [17]: 43.5 µM
CC50 [17, 35]: 100 µM
GI50 [18]: 12.7 µM
TGI [18]: 29.4 µM
CC50 [18, 35]: 68.1 µM
GI50 [19]: 14.8 µM
TGI [19]: 32.7 µM
CC50 [19, 35]: 72.1 µM
GI50 [20]: 26.7 µM
TGI [20]: 43.9 µM
CC50 [20, 35]: 72.2 µM
GI50 [21]: 14.5 µM
TGI [21]: 27.8 µM
GI50 [22]: 15.4 µM
TGI [22]: 43.3 µM
CC50 [22, 35]: 100 µM
GI50 [23]: 23 µM
TGI [23]: 62.3 µM
CC50 [23, 35]: 100 µM
growth at 10 µM [24]: 92.5%
GI50 [25]: 11.8 µM
TGI [25]: 26.9 µM
GI50 [26]: 22.1 µM
TGI [26]: 42.4 µM
CC50 [26, 35]: 81.4 µM
GI50 [27]: 11 µM
TGI [27]: 27.2 µM
CC50 [27, 35]: 67.5 µM
GI50 [28]: 6.55 µM
TGI [28]: 24.2 µM
CC50 [28, 35]: 71.1 µM
GI50 [29]: 5.72 µM
TGI [29]: 19.7 µM
CC50 [29, 35]: 51.4 µM
GI50 [30]: 13.4 µM
TGI [30]: 31 µM
GI50 [31]: 14.7 µM
TGI [31]: 43.4 µM
GI50 [32]: 12.2 µM
TGI [32]: 27.4 µM
CC50 [32, 35]: 61.4 µM
GI50 [33]: 18.7 µM
TGI [33]: 37.2 µM
CC50 [33, 35]: 73.9 µM
GI50 [34]: 26.3 µM
TGI [34]: 63.1 µM
